# Activity calls are given as the source filed them. The rule behind the calls is not given here.
# Assays:
# [1] = molecular target: Vascular endothelial growth factor receptor 2 (Homo sapiens, UniProt P35968); assay type: cell-based, U-251
# A-431 = assay: Antiproliferative activity against human A431 cells after 48 hrs by CYQUANT assay; assay type: functional, cell-based; settings: A-431, 48 h
# [2] = Antiangiogenic activity in VEGF/bFGF-stimulated chicken embryo after 48 hrs by CAM assay; assay type: functional, Gallus gallus
# [3] = molecular target: Platelet-derived growth factor receptor beta (Homo sapiens, UniProt P09619); assay: Inhibition of PDGFRbeta in human SF539 cells pretreated for 60 mins measured after 10 mins by ELISA
# Platelet-derived growth factor receptor beta, sequence (P09619 whole entry): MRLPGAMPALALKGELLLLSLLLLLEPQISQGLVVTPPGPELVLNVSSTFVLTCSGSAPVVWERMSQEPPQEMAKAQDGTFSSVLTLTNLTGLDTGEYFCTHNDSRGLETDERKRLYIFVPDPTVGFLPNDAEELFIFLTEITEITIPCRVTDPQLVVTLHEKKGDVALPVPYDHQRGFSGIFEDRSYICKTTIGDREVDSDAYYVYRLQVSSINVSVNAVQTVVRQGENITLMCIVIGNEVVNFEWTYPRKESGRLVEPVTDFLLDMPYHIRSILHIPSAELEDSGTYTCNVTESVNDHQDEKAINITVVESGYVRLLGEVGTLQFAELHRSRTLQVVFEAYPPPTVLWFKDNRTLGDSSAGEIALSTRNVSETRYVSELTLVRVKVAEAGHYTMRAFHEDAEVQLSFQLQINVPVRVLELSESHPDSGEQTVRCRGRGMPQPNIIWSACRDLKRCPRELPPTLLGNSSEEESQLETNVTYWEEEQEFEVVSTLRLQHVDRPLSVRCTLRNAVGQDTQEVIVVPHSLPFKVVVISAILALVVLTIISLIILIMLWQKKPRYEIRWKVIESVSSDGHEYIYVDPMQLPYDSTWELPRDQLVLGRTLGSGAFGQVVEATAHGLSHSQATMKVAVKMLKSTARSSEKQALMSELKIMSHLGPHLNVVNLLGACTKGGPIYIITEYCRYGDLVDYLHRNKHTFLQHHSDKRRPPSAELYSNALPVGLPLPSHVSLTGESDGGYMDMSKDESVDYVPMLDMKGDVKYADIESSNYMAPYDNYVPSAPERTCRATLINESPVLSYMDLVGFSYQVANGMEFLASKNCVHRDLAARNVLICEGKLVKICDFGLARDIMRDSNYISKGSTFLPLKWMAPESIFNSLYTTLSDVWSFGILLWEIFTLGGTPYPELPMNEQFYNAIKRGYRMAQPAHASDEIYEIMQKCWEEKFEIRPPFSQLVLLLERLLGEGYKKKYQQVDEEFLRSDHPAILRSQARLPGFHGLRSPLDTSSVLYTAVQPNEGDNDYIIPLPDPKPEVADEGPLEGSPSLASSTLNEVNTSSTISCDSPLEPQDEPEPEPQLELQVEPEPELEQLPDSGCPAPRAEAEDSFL
# [4] = molecular target: T1, Bifunctional dihydrofolate reductase-thymidylate synthase (Toxoplasma gondii, UniProt Q07422); assay: Inhibition of Toxoplasma gondii DHFR
# T1 sequence (Q07422 whole entry): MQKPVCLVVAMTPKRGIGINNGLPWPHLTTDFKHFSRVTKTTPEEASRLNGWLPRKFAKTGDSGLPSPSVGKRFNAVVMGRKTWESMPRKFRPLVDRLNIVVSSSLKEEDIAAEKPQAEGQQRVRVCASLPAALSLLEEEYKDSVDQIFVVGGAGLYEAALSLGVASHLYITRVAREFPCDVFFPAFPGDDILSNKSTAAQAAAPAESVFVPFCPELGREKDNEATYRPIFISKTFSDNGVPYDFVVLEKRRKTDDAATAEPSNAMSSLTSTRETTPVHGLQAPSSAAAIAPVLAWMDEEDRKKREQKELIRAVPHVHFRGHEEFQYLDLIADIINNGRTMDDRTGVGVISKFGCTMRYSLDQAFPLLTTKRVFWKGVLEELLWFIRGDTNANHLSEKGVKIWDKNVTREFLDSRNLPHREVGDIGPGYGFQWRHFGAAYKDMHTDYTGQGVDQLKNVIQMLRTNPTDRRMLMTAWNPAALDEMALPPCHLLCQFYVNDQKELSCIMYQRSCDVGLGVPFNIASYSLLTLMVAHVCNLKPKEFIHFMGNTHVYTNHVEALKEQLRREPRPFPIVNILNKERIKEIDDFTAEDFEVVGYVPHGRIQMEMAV
# Thymidylate synthase = Thymidylate synthase (Homo sapiens, UniProt P04818); assay: Inhibition of human thymidylate synthase
# Thymidylate synthase, sequence (P04818 whole entry): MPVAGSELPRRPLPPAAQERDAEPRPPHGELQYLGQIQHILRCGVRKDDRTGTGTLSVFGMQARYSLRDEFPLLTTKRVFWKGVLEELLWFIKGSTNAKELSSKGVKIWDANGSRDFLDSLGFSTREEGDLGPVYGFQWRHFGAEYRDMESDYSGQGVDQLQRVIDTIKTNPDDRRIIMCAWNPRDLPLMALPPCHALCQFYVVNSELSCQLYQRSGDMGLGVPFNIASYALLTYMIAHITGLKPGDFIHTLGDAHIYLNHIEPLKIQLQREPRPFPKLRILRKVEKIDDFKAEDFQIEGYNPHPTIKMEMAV
# [5] = Inhibition of Escherichia coli thymidylate synthase
# [6] = molecular target: T1, Bifunctional dihydrofolate reductase-thymidylate synthase; assay: Inhibition of Toxoplasma gondii thymidylate synthase
# [7] = molecular target: Dihydroorotate dehydrogenase (quinone), mitochondrial (Homo sapiens, UniProt Q02127); assay: Inhibition of human DHODH
# Dihydroorotate dehydrogenase (quinone), mitochondrial, sequence (Q02127 whole entry): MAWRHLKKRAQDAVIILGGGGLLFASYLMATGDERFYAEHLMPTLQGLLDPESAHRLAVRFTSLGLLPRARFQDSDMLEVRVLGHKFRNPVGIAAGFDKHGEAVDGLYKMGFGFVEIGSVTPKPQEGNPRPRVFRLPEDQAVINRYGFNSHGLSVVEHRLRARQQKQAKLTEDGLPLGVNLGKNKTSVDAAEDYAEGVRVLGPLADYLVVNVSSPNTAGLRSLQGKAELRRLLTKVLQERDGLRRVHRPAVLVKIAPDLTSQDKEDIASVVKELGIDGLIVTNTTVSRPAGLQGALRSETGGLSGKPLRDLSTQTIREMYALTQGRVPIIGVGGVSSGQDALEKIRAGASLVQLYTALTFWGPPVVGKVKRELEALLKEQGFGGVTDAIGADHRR
# [8] = molecular target: T2, Dihydroorotate dehydrogenase (Plasmodium falciparum, UniProt Q54A96); assay: Inhibition of Plasmodium falciparum DHODH
# T2 sequence (Q54A96 whole entry): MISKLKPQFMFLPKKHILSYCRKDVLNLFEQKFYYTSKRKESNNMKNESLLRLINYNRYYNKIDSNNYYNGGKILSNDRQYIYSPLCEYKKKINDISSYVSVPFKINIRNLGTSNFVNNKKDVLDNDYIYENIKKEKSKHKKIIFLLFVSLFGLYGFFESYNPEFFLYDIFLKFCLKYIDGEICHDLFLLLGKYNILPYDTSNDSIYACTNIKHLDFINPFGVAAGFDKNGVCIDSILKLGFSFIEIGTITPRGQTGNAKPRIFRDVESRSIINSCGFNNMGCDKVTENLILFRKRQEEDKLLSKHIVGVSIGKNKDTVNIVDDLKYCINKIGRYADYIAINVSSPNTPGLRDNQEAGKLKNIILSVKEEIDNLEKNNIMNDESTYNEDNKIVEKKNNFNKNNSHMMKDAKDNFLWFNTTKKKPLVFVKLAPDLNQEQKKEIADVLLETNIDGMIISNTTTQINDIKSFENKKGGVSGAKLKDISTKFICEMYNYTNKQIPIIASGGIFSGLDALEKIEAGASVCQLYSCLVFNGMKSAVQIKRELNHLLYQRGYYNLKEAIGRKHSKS
# Dihydrofolate reductase = molecular target: T3, Dihydrofolate reductase (Homo sapiens, UniProt P00374)
# T3 sequence (P00374 whole entry): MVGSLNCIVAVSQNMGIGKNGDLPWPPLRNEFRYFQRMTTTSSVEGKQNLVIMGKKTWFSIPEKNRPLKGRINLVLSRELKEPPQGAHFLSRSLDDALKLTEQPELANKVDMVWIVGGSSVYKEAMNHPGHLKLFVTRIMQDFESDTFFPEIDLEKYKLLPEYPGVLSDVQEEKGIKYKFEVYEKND
# Mus musculus [9] = assay: Toxicity in NCr nu/nu mouse allografted with mouse B16F10 cells assessed as weight loss at 35 mg/kg, ip administered three times a week for 4 weeks; assay type: organism-based, B16-F10; parameters: dose 35 mg/kg, route intraperitoneal; settings: in vivo, 672 h
# Mus musculus [10] = assay: Toxicity in NCr nu/nu mouse allografted with mouse B16F10 cells at 35 mg/kg, ip administered three times a week for 4 weeks; assay type: organism-based, B16-F10; parameters: dose 35 mg/kg, route intraperitoneal; settings: in vivo, 672 h
# CCRF-CEM = assay: cells; settings: Homo sapiens
# HL-60(TB) = assay: cells; settings: Homo sapiens
# K562 = assay: cells; settings: Homo sapiens
# MOLT-4 = assay: cells; settings: Homo sapiens
# RPMI-8226 = assay: cells; settings: Homo sapiens
# SR = assay: cells; settings: Homo sapiens
# A549 = assay: cells; settings: Homo sapiens
# EKVX = assay: cells; settings: Homo sapiens
# HOP-62 = assay: cells; settings: Homo sapiens
# HOP-92 = assay: cells; settings: Homo sapiens
# NCI-H226 = assay: cells; settings: Homo sapiens
# NCI-H23 = assay: cells; settings: Homo sapiens
# NCI-H322M = assay: cells; settings: Homo sapiens
# NCI-H460 = assay: cells; settings: Homo sapiens
# NCI-H522 = assay: cells; settings: Homo sapiens
# COLO 205 = assay: cells; settings: Homo sapiens
# HCT-116 = assay: cells; settings: Homo sapiens
# HCT-15 = assay: cells; settings: Homo sapiens
# KM12 = assay: cells; settings: Homo sapiens
# SW-620 = assay: cells; settings: Homo sapiens
# SF-268 = assay: cells; settings: Homo sapiens
# SF-295 = assay: cells; settings: Homo sapiens
# SF-539 = assay: cells; settings: Homo sapiens
# SNB-19 = assay: cells; settings: Homo sapiens
# SNB-75 = assay: cells; settings: Homo sapiens
# U-251 = assay: cells; settings: Homo sapiens
# PC-3 = assay: cells; settings: Homo sapiens
# DU-145 = assay: cells; settings: Homo sapiens
# LOX IMVI = assay: cells; settings: Homo sapiens
# Malme-3M = assay: cells; settings: Homo sapiens
# M14 = assay: cells; settings: Homo sapiens
# SK-MEL-2 = assay: cells; settings: Homo sapiens
# SK-MEL-28 = assay: cells; settings: Homo sapiens
# SK-MEL-5 = assay: cells; settings: Homo sapiens
# UACC-257 = assay: cells; settings: Homo sapiens
# UACC-62 = assay: cells; settings: Homo sapiens
# IGROV-1 = assay: cells; settings: Homo sapiens
# OVCAR-3 = assay: cells; settings: Homo sapiens
# OVCAR-4 = assay: cells; settings: Homo sapiens
# OVCAR-8 = assay: cells; settings: Homo sapiens
# SK-OV-3 = assay: cells; settings: Homo sapiens
# 786-0 = assay: cells; settings: Homo sapiens
# A498 = assay: cells; settings: Homo sapiens
# ACHN = assay: cells; settings: Homo sapiens
# CAKI-1 = assay: cells; settings: Homo sapiens
# RXF 393 = assay: cells; settings: Homo sapiens
# SN12C = assay: cells; settings: Homo sapiens
# TK-10 = assay: cells; settings: Homo sapiens
# UO-31 = assay: cells; settings: Homo sapiens
# MCF7 = assay: cells; settings: Homo sapiens
# cells [11] = settings: Homo sapiens, NCI/ADR-RES
# MDA-MB-231 = assay: cells; settings: Homo sapiens
# cells [12] = settings: Homo sapiens, Hs-578T
# MDA-MB-435 = assay: cells; settings: Homo sapiens
# BT-549 = assay: cells; settings: Homo sapiens
# T47D = assay: cells; settings: Homo sapiens
# B16-F10 [13] = assay: Antitumor activity against mouse B16F10 cells allografted in NCr nu/nu mouse assessed as tumor growth reduction at 35 mg/kg, ip administered three times weekly for 2 weeks
# B16-F10 [14] = assay: Antitumor activity against mouse B16F10 cells allografted in NCr nu/nu mouse assessed as decrease in tumor metastasis at 35 mg/kg, ip administered three times weekly for 2 weeks
# B16-F10 [15] = assay: Antitumor activity against mouse B16F10 cells allografted in NCr nu/nu mouse assessed as inhibition of tumor angiogenesis at 35 mg/kg, ip administered three times weekly for 2 weeks
# [16] = molecular target: Epidermal growth factor receptor (Homo sapiens, UniProt P00533); assay type: cell-based, A-431
# Epidermal growth factor receptor, sequence (P00533 whole entry): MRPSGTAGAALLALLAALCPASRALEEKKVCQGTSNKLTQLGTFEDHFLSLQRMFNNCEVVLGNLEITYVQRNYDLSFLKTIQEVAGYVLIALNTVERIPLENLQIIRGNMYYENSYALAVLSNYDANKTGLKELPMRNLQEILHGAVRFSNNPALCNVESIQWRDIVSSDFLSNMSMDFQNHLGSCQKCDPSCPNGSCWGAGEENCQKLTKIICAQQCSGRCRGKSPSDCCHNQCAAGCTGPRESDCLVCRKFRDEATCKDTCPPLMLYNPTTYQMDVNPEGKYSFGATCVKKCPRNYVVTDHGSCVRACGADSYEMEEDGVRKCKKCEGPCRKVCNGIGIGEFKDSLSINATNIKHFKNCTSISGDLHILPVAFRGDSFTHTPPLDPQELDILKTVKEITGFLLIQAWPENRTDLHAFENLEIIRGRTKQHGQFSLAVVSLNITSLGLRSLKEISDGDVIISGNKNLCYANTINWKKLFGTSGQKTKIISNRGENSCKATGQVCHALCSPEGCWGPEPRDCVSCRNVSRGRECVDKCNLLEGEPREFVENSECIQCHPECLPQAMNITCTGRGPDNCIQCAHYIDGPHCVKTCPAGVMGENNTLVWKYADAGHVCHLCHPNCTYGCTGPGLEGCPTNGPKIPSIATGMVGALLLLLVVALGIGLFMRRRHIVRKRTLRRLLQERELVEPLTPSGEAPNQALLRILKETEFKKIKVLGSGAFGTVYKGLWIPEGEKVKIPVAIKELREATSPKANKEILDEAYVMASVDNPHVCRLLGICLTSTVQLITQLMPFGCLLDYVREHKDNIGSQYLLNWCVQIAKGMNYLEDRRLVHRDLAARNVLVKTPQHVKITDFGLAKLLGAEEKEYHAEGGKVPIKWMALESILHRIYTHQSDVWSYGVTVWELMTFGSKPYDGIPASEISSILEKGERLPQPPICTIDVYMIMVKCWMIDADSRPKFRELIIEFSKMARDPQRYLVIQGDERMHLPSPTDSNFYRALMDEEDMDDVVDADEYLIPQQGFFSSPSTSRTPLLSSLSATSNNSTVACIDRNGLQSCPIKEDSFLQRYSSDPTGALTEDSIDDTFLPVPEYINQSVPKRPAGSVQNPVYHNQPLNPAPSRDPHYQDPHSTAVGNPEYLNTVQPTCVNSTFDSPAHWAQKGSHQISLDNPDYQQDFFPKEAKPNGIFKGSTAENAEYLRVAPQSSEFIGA
# Vascular endothelial growth factor receptor 2, sequence (P35968 whole entry): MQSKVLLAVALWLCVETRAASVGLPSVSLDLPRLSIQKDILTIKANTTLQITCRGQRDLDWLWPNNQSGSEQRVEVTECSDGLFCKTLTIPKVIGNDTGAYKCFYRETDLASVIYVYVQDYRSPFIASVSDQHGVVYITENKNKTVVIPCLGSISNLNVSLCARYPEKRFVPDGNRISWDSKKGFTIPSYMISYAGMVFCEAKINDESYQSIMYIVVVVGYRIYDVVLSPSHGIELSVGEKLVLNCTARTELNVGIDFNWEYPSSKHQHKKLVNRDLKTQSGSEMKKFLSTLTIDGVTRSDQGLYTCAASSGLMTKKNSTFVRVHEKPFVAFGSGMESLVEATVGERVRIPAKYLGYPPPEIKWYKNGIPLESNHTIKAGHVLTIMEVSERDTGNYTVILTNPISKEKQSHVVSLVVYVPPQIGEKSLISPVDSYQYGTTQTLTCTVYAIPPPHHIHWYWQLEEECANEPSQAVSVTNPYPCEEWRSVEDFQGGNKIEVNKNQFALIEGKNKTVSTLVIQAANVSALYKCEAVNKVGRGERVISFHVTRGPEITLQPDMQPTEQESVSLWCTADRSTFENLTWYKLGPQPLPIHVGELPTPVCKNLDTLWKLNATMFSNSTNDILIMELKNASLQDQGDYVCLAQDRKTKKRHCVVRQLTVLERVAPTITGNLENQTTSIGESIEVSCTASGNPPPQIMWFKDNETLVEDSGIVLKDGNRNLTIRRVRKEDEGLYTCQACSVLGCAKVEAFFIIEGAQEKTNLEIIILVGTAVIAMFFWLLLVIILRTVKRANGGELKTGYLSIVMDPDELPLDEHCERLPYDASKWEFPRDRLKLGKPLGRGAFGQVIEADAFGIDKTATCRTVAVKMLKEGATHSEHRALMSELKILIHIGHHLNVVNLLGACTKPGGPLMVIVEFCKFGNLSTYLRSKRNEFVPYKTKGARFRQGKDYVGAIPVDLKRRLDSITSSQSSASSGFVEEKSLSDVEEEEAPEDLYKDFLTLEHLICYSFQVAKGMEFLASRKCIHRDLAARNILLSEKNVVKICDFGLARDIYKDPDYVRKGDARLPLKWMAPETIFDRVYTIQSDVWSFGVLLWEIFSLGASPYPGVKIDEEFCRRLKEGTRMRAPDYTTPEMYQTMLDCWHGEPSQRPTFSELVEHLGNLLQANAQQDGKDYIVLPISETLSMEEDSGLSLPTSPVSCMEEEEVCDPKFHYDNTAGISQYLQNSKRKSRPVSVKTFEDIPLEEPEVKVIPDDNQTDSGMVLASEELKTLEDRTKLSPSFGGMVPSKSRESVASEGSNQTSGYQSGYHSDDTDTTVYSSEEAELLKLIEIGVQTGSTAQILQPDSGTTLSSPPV
structure (smiles),measurement,setting,value
Nc1nc2c(c(Nc3ccc(Br)cc3)n1)-c1ccccc1C2,IC50,[1],30.1 µM
same,IC50,A-431,103 µM
same,IC50,[2],19.1 µM
same,IC50,[3],38.9 µM
Nc1nc2c(c(Nc3ccc(Cl)cc3F)n1)-c1ccccc1C2,IC50,A-431,9.7 µM
same,IC50,[4],> 16 µM
same,IC50,Thymidylate synthase,> 13 µM
same,IC50,[5],> 13 µM
same,IC50,[6],> 13 µM
same,IC50,[7],> 200 µM
same,IC50,[8],> 200 µM
same,IC50,Dihydrofolate reductase,> 16 µM
Nc1nc2c(c(Nc3cccc(Br)c3)n1)-c1ccccc1C2,IC50,[1],> 200 µM
same,IC50,A-431,> 500 µM
same,IC50,[4],> 14 µM
same,IC50,Thymidylate synthase,> 12 µM
same,IC50,[5],> 12 µM
same,IC50,[6],> 12 µM
same,IC50,[7],> 200 µM
same,IC50,[8],> 200 µM
same,IC50,Dihydrofolate reductase,> 14 µM
Nc1nc2c(c(Nc3ccc(Cl)cc3)n1)-c1ccccc1C2,IC50,[1],> 200 µM
same,IC50,A-431,9.7 µM
same,IC50,[4],> 16 µM
same,IC50,Thymidylate synthase,> 14 µM
same,IC50,[5],> 14 µM
same,IC50,[6],> 14 µM
same,IC50,[7],> 200 µM
same,IC50,[8],> 200 µM
same,Activity,Mus musculus [9],Non-toxic
same,Activity,Mus musculus [10],Non-toxic
same,IC50,Dihydrofolate reductase,> 16 µM
same,GI50,CCRF-CEM,0.0312 µM
same,GI50,HL-60(TB),0.15 µM
same,GI50,K562,0.366 µM
same,GI50,MOLT-4,0.0661 µM
same,GI50,RPMI-8226,0.489 µM
same,GI50,SR,0.484 µM
same,GI50,A549,0.0434 µM
same,GI50,EKVX,2.71 µM
same,GI50,HOP-62,0.654 µM
same,GI50,HOP-92,18.1 µM
same,GI50,NCI-H226,2.14 µM
same,GI50,NCI-H23,0.565 µM
same,GI50,NCI-H322M,1.35 µM
same,GI50,NCI-H460,0.0193 µM
same,GI50,NCI-H522,0.622 µM
same,GI50,COLO 205,0.638 µM
same,GI50,HCT-116,0.0381 µM
same,GI50,HCT-15,0.434 µM
same,GI50,KM12,0.33 µM
same,GI50,SW-620,0.063 µM
same,GI50,SF-268,0.0862 µM
same,GI50,SF-295,0.547 µM
same,GI50,SF-539,0.381 µM
same,GI50,SNB-19,0.113 µM
same,GI50,SNB-75,5.03 µM
same,GI50,U-251,0.184 µM
same,GI50,PC-3,0.715 µM
same,GI50,DU-145,0.212 µM
same,GI50,LOX IMVI,0.308 µM
same,GI50,Malme-3M,> 10 µM
same,GI50,M14,0.431 µM
same,GI50,SK-MEL-2,0.558 µM
same,GI50,SK-MEL-28,1.51 µM
same,GI50,SK-MEL-5,0.513 µM
same,GI50,UACC-257,0.0845 µM
same,GI50,UACC-62,0.641 µM
same,GI50,IGROV-1,0.287 µM
same,GI50,OVCAR-3,0.216 µM
same,GI50,OVCAR-4,2.09 µM
same,GI50,OVCAR-8,0.216 µM
same,GI50,SK-OV-3,2.09 µM
same,GI50,786-0,0.514 µM
same,GI50,A498,2.49 µM
same,GI50,ACHN,3.42 µM
same,GI50,CAKI-1,1.08 µM
same,GI50,RXF 393,2.91 µM
same,GI50,SN12C,0.189 µM
same,GI50,TK-10,2.15 µM
same,GI50,UO-31,0.79 µM
same,GI50,MCF7,0.0734 µM
same,GI50,cells [11],0.787 µM
same,GI50,MDA-MB-231,0.641 µM
same,GI50,cells [12],2.22 µM
same,GI50,MDA-MB-435,0.554 µM
same,GI50,BT-549,2.83 µM
same,GI50,T47D,2.9 µM
same,growth inhibition (GI),B16-F10 [13],Active
same,Activity,B16-F10 [14],inactive
same,Activity,B16-F10 [15],Active
Cc1[nH]c(/C=C2\C(=O)Nc3ccccc32)c(C)c1CCC(=O)O,growth inhibition (GI),B16-F10 [13],Active
same,Activity,B16-F10 [14],Active
same,Activity,B16-F10 [15],Active
Nc1nc2c(c(Nc3cccc(F)c3)n1)-c1ccccc1C2,IC50,[16],> 300 µM
same,IC50,A-431,9.8 µM
same,IC50,[7],> 200 µM
same,IC50,[8],> 200 µM
Nc1nc2c(c(Nc3ccccc3)n1)-c1ccccc1C2,IC50,[16],> 200 µM
same,IC50,A-431,4.9 µM
same,IC50,[7],> 200 µM
same,IC50,[8],> 200 µM

# Reference: ChEMBL document CHEMBL2046359, “Novel tricyclic indeno[2,1-d]pyrimidines with dual antiangiogenic and cytotoxic activities as potent antitumor agents” (Bioorg Med Chem, 2012)
